Assay results published in patent US7282513B2, “Heteroaryl substituted spirocyclic sulfamides for inhibition of gamma secretase” (Merck Sharp & Dohme Limited, priority 2002, dated 2007).

- melting point: 185 °C
SMILES: Cn1nc(-c2ccc(F)cc2)cc1-c1ccc2c(c1)C[C@H]1CC[C@@H](C2)[C@]12CN(CC(F)(F)F)S(=O)(=O)N2 (single isomer, unassigned) [Example 15]
